Data as given in the supplement of paper PMC10307832.

How the values were obtained:
Assay in all cases: relative viability (nuclei count vs DMSO), 5 days (fraction); higher = more cells survive
Selisistat + Palbociclib = compound: C1CC(C2=C(C1)C3=C(N2)C=CC(=C3)Cl)C(=O)N [Selisistat] + CC(=O)c1c(C)c2cnc(Nc3ccc(N4CCNCC4)cn3)nc2n(C2CCCC2)c1=O [Palbociclib] (partner 0.5 µM)
Procedure, shortened: (§1)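 Relative viability equals treated-well nuclei counts divided by vehicle-well nuclei counts. Counts came from 4× images of lung cancer cell lines grown in 1536-well plates for 5 days after pin-tool dosing on the day after seeding. Dosing used one drug alone or a fixed anchor-drug dose plus five library-drug doses (not always all listed) in √10 steps, and values are medians of duplicate plates.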

Selisistat + Navitoclax = compound: C1CC(C2=C(C1)C3=C(N2)C=CC(=C3)Cl)C(=O)N [Selisistat] + CC1(C)CCC(c2ccc(Cl)cc2)=C(CN2CCN(c3ccc(C(=O)NS(=O)(=O)c4ccc(N[C@H](CCN5CCOCC5)CSc5ccccc5)c(S(=O)(=O)C(F)(F)F)c4)cc3)CC2)C1 [Navitoclax] (partner 0.5 µM)
Procedure, shortened: as §1

Serdemetan + Crizotinib = compound: c1ccc2c(CCNc3ccc(Nc4ccncc4)cc3)c[nH]c2c1 [Serdemetan] + C[C@@H](Oc1cc(-c2cnn(C3CCNCC3)c2)cnc1N)c1c(Cl)ccc(F)c1Cl [Crizotinib] (partner 1 µM)
Procedure, shortened: as §1

Serdemetan + Linsitinib = compound: c1ccc2c(CCNc3ccc(Nc4ccncc4)cc3)c[nH]c2c1 [Serdemetan] + C[C@]1(O)C[C@@H](c2nc(-c3ccc4ccc(-c5ccccc5)nc4c3)c3c(N)nccn32)C1 [Linsitinib] (partner 1 µM)
Procedure, shortened: as §1

NCI-H1944 showed a relative viability (Selisistat + Palbociclib; first compound 0.4 µM) of 0.351, a relative viability (Selisistat + Palbociclib; first compound 1.265 µM) of 0.285 and a relative viability (Selisistat + Palbociclib; first compound 4 µM) of 0.276. For the same cell line, the relative viability (Selisistat + Palbociclib; first compound 12.65 µM) was 0.326, the relative viability (Selisistat + Palbociclib; first compound 40 µM) was 0.351 and the relative viability (Selisistat + Navitoclax; first compound 0.4 µM) was 1.1. It also gave a relative viability (Selisistat + Navitoclax; first compound 1.265 µM) of 0.998, a relative viability (Selisistat + Navitoclax; first compound 12.65 µM) of 1.04 and a relative viability (Selisistat + Navitoclax; first compound 40 µM) of 0.927. For the same cell line, the relative viability (Serdemetan + Crizotinib; first compound 0.04 µM) was 0.973, the relative viability (Serdemetan + Crizotinib; first compound 0.1265 µM) was 1.02 and the relative viability (Serdemetan + Crizotinib; first compound 0.4 µM) was 0.904. It also gave a relative viability (Serdemetan + Crizotinib; first compound 4 µM) of 0.419, a relative viability (Serdemetan + Linsitinib; first compound 0.04 µM) of 1.23 and a relative viability (Serdemetan + Linsitinib; first compound 0.1265 µM) of 1.17. It also gave a relative viability (Serdemetan + Linsitinib; first compound 0.4 µM) of 1.06 and a relative viability (Serdemetan + Linsitinib; first compound 4 µM) of 0.6.

In the case of NCI-H1975, the relative viability (Selisistat + Palbociclib; first compound 0.4 µM) is reported as 0.585, the relative viability (Selisistat + Palbociclib; first compound 1.265 µM) is reported as 0.585 and the relative viability (Selisistat + Palbociclib; first compound 4 µM) is reported as 0.38. For the same cell line, the relative viability (Selisistat + Palbociclib; first compound 12.65 µM) was 0.478, the relative viability (Selisistat + Palbociclib; first compound 40 µM) was 0.523 and the relative viability (Selisistat + Navitoclax; first compound 0.4 µM) was 1.08. It also gave a relative viability (Selisistat + Navitoclax; first compound 1.265 µM) of 0.913, a relative viability (Selisistat + Navitoclax; first compound 4 µM) of 1.05 and a relative viability (Selisistat + Navitoclax; first compound 12.65 µM) of 0.982. It also gave a relative viability (Selisistat + Navitoclax; first compound 40 µM) of 0.976, a relative viability (Serdemetan + Crizotinib; first compound 0.04 µM) of 0.91 and a relative viability (Serdemetan + Crizotinib; first compound 0.1265 µM) of 0.934. For the same cell line, the relative viability (Serdemetan + Crizotinib; first compound 0.4 µM) was 0.937, the relative viability (Serdemetan + Crizotinib; first compound 1.265 µM) was 0.804 and the relative viability (Serdemetan + Crizotinib; first compound 4 µM) was 0.99. For the same cell line, the relative viability (Serdemetan + Linsitinib; first compound 0.04 µM) was 1.01, the relative viability (Serdemetan + Linsitinib; first compound 0.1265 µM) was 1.04 and the relative viability (Serdemetan + Linsitinib; first compound 0.4 µM) was 0.974. It also gave a relative viability (Serdemetan + Linsitinib; first compound 1.265 µM) of 0.985 and a relative viability (Serdemetan + Linsitinib; first compound 4 µM) of 1.19.

With NCI-H1993 the relative viability (Selisistat + Palbociclib; first compound 0.4 µM) was 0.703, the relative viability (Selisistat + Palbociclib; first compound 1.265 µM) was 0.67 and the relative viability (Selisistat + Palbociclib; first compound 12.65 µM) was 0.623. It also gave a relative viability (Selisistat + Palbociclib; first compound 40 µM) of 0.676, a relative viability (Selisistat + Navitoclax; first compound 0.4 µM) of 0.969 and a relative viability (Selisistat + Navitoclax; first compound 1.265 µM) of 0.891. For the same cell line, the relative viability (Selisistat + Navitoclax; first compound 12.65 µM) was 1.03, the relative viability (Selisistat + Navitoclax; first compound 40 µM) was 0.986 and the relative viability (Serdemetan + Crizotinib; first compound 0.04 µM) was 0.951. The relative viability (Serdemetan + Crizotinib; first compound 0.1265 µM) was 0.944, the relative viability (Serdemetan + Crizotinib; first compound 0.4 µM) was 0.86 and the relative viability (Serdemetan + Crizotinib; first compound 4 µM) was 0.734. It also gave a relative viability (Serdemetan + Linsitinib; first compound 0.04 µM) of 0.688, a relative viability (Serdemetan + Linsitinib; first compound 0.1265 µM) of 0.648 and a relative viability (Serdemetan + Linsitinib; first compound 0.4 µM) of 0.677. It also gave a relative viability (Serdemetan + Linsitinib; first compound 4 µM) of 0.713.

Work on NCI-H2009 yielded a relative viability (Selisistat + Palbociclib; first compound 0.4 µM) of 0.202, a relative viability (Selisistat + Palbociclib; first compound 1.265 µM) of 0.184 and a relative viability (Selisistat + Palbociclib; first compound 4 µM) of 0.136. The relative viability (Selisistat + Palbociclib; first compound 12.65 µM) was 0.202, the relative viability (Selisistat + Palbociclib; first compound 40 µM) was 0.191 and the relative viability (Selisistat + Navitoclax; first compound 0.4 µM) was 1.18. For the same cell line, the relative viability (Selisistat + Navitoclax; first compound 1.265 µM) was 1.15, the relative viability (Selisistat + Navitoclax; first compound 4 µM) was 1.19 and the relative viability (Selisistat + Navitoclax; first compound 12.65 µM) was 1.14. For the same cell line, the relative viability (Selisistat + Navitoclax; first compound 40 µM) was 1.1, the relative viability (Serdemetan + Crizotinib; first compound 0.04 µM) was 1 and the relative viability (Serdemetan + Crizotinib; first compound 0.1265 µM) was 0.966. For the same cell line, the relative viability (Serdemetan + Crizotinib; first compound 0.4 µM) was 0.912, the relative viability (Serdemetan + Crizotinib; first compound 1.265 µM) was 0.803 and the relative viability (Serdemetan + Crizotinib; first compound 4 µM) was 0.956. It also gave a relative viability (Serdemetan + Linsitinib; first compound 0.04 µM) of 1.18, a relative viability (Serdemetan + Linsitinib; first compound 0.1265 µM) of 1.2 and a relative viability (Serdemetan + Linsitinib; first compound 0.4 µM) of 1.13. The relative viability (Serdemetan + Linsitinib; first compound 1.265 µM) was 1 and the relative viability (Serdemetan + Linsitinib; first compound 4 µM) was 0.979.

NCI-H2023 gave a relative viability (Selisistat + Palbociclib; first compound 0.4 µM) of 0.34, a relative viability (Selisistat + Palbociclib; first compound 1.265 µM) of 0.354 and a relative viability (Selisistat + Palbociclib; first compound 4 µM) of 0.401. For the same cell line, the relative viability (Selisistat + Palbociclib; first compound 12.65 µM) was 0.378, the relative viability (Selisistat + Palbociclib; first compound 40 µM) was 0.353 and the relative viability (Selisistat + Navitoclax; first compound 0.4 µM) was 1.03. It also gave a relative viability (Selisistat + Navitoclax; first compound 1.265 µM) of 0.986, a relative viability (Selisistat + Navitoclax; first compound 4 µM) of 0.989 and a relative viability (Selisistat + Navitoclax; first compound 12.65 µM) of 0.948. The relative viability (Selisistat + Navitoclax; first compound 40 µM) was 0.92, the relative viability (Serdemetan + Crizotinib; first compound 0.04 µM) was 0.688 and the relative viability (Serdemetan + Crizotinib; first compound 0.1265 µM) was 0.644. It also gave a relative viability (Serdemetan + Crizotinib; first compound 0.4 µM) of 0.452, a relative viability (Serdemetan + Crizotinib; first compound 1.265 µM) of 0.286 and a relative viability (Serdemetan + Crizotinib; first compound 4 µM) of 0.237. The relative viability (Serdemetan + Linsitinib; first compound 0.04 µM) was 0.708, the relative viability (Serdemetan + Linsitinib; first compound 0.1265 µM) was 0.766 and the relative viability (Serdemetan + Linsitinib; first compound 0.4 µM) was 0.613. The relative viability (Serdemetan + Linsitinib; first compound 1.265 µM) was 0.601 and the relative viability (Serdemetan + Linsitinib; first compound 4 µM) was 0.253.

NCI-H2085 showed a relative viability (Selisistat + Palbociclib; first compound 0.4 µM) of 0.486, a relative viability (Selisistat + Palbociclib; first compound 1.265 µM) of 0.476 and a relative viability (Selisistat + Palbociclib; first compound 4 µM) of 0.433. The relative viability (Selisistat + Palbociclib; first compound 12.65 µM) was 0.522, the relative viability (Selisistat + Palbociclib; first compound 40 µM) was 0.496 and the relative viability (Selisistat + Navitoclax; first compound 0.4 µM) was 1.16. For the same cell line, the relative viability (Selisistat + Navitoclax; first compound 1.265 µM) was 1.15, the relative viability (Selisistat + Navitoclax; first compound 4 µM) was 1.12 and the relative viability (Selisistat + Navitoclax; first compound 12.65 µM) was 1.15. The relative viability (Selisistat + Navitoclax; first compound 40 µM) was 1.21, the relative viability (Serdemetan + Crizotinib; first compound 0.04 µM) was 0.688 and the relative viability (Serdemetan + Crizotinib; first compound 0.1265 µM) was 0.817. The relative viability (Serdemetan + Crizotinib; first compound 0.4 µM) was 0.733, the relative viability (Serdemetan + Crizotinib; first compound 1.265 µM) was 0.627 and the relative viability (Serdemetan + Crizotinib; first compound 4 µM) was 0.561. For the same cell line, the relative viability (Serdemetan + Linsitinib; first compound 0.04 µM) was 0.939, the relative viability (Serdemetan + Linsitinib; first compound 0.1265 µM) was 0.901 and the relative viability (Serdemetan + Linsitinib; first compound 0.4 µM) was 0.836. The relative viability (Serdemetan + Linsitinib; first compound 1.265 µM) was 0.621 and the relative viability (Serdemetan + Linsitinib; first compound 4 µM) was 0.581.

Cell Line NCI-H2087 has a relative viability (Selisistat + Palbociclib; first compound 0.4 µM) of 0.224, a relative viability (Selisistat + Palbociclib; first compound 1.265 µM) of 0.278 and a relative viability (Selisistat + Palbociclib; first compound 12.65 µM) of 0.261. The relative viability (Selisistat + Palbociclib; first compound 40 µM) was 0.287, the relative viability (Selisistat + Navitoclax; first compound 0.4 µM) was 1.13 and the relative viability (Selisistat + Navitoclax; first compound 1.265 µM) was 0.99. For the same cell line, the relative viability (Selisistat + Navitoclax; first compound 4 µM) was 1.02, the relative viability (Selisistat + Navitoclax; first compound 12.65 µM) was 0.926 and the relative viability (Selisistat + Navitoclax; first compound 40 µM) was 0.779. It also gave a relative viability (Serdemetan + Crizotinib; first compound 0.04 µM) of 1.14, a relative viability (Serdemetan + Crizotinib; first compound 0.1265 µM) of 0.746 and a relative viability (Serdemetan + Crizotinib; first compound 0.4 µM) of 0.699. It also gave a relative viability (Serdemetan + Crizotinib; first compound 1.265 µM) of 0.426, a relative viability (Serdemetan + Crizotinib; first compound 4 µM) of 0.487 and a relative viability (Serdemetan + Linsitinib; first compound 0.04 µM) of 0.907. The relative viability (Serdemetan + Linsitinib; first compound 0.1265 µM) was 0.842, the relative viability (Serdemetan + Linsitinib; first compound 0.4 µM) was 0.945 and the relative viability (Serdemetan + Linsitinib; first compound 1.265 µM) was 0.608. The relative viability (Serdemetan + Linsitinib; first compound 4 µM) was 0.505.
